# Test system: human colon cancer cell line HCT116
# Test: Measurement of cell proliferation inhibitory activity (Cell Counting Kit-8)
# Type: cell-based
# Conditions: HCT116, 4 days incubation, Table 1-2; read-out: IC50 (50% proliferation inhibitory concentration)
# Description: The cell proliferation inhibitory activities of the compounds and salts shown in Tables 1-1, 1-2 and Table 2 were measured as follows, using the human colon cancer cell line HCT116 (American Type Culture Collection, VA, USA). 2000 to 3000 cells per well of the human colon cancer cell line HCT116 was placed in a 96-well culture plate, a predetermined concentration (0.00038 μM, 0.00076 μM, 0.0015 μM, 0.0031 μM, 0.0061 μM, 0.012 μM, 0.024 μM, 0.049 μM, 0.098 μM, 0.195 μM, 0.39 μM, 0.78 μM, 1.56 μM, 3.13 μM, 6.25 μM, 12.5 μM, 25 μM or 50 μM) of the test substance was added thereto, and the mixture was then incubated at 37° C. under 5% CO2 environment for 4 days. On day 4 of incubation, the Cell Counting Kit-8 solution (Dojindo Laboratories) was added, the absorbance (measurement wavelength: 450 nm; reference wavelength: 615 nm) was measured following the protocol attached to the kit, and the 50% proliferation inhibitory concentration (IC50) was calculated.
row,Compound,IC50 [nM]
1,"Cc1c(Cc2ccccc2)c(=O)oc2cc(OC(=O)N(C)C)c(Cl)cc12 [Comp. 2, dimethylcarbamic acid 2-oxo-2H-3-benzyl-4-methyl-6-chloro-1-benzopyran-7-yl ester, reference compound]",1300

# Same assay, conditions: Homo sapiens, HCT-116, 96 h; HCT116, 4 days incubation, Table 1-1; read-out: IC50 (50% proliferation inhibitory concentration)
row,Compound,IC50 [nM]
1,"CNS(=O)(=O)Nc1cccc(Cc2c(CF)c3cc(Cl)c(OC(=O)N(C)C)cc3oc2=O)c1 [Compound 1j-1-3-2F, Dimethylcarbamic acid 6-chloro-4-fluoromethyl-3-{3-(methylaminosulfonyl)aminobenzyl}-2-oxo-2H-1-benzopyran-7-yl ester]",19.5
2,"Cc1c(Cc2cccc(NS(N)(=O)=O)c2F)c(=O)oc2cc(OC(=O)N(C)C)ccc12 [Compound 1j-1-4-1, Dimethylcarbamic acid 3-(3-aminosulfonylamino-2-fluoro-benzyl)-4-methyl-2-oxo-2H-1-benzopyran-7-yl ester]",17.6
3,"CNS(=O)(=O)Nc1cccc(Cc2c(C)c3ccc(OC(=O)N(C)C)cc3oc2=O)c1F [Compound 1j-1-4-2, Dimethylcarbamic acid 3-(3-methylaminosulfonylamino-2-fluorobenzyl)-4-methyl-2-oxo-2H-1-benzopyran-7-yl ester]",9.3
4,"CNS(=O)(=O)Nc1cccc(Cc2c(CF)c3ccc(OC(=O)N(C)C)cc3oc2=O)c1F [Compound 1j-1-4-2F, Dimethylcarbamic acid 3-(3-methylaminosulfonylamino-2-fluorobenzyl)-4-fluoromethyl-2-oxo-2H-1-benzopyran-7-yl ester]",10.6
5,"Cc1c(Cc2cccc(NS(N)(=O)=O)c2F)c(=O)oc2cc(OC(=O)N(C)C)c(F)cc12 [Compound 1j-1-5-1, Dimethylcarbamic acid 3-{2-fluoro-3-(aminosulfonyl)aminobenzyl}-6-fluoro-4-methyl-2-oxo-2H-1-benzopyran-7-yl ester]",8.3
6,"CNS(=O)(=O)Nc1cccc(Cc2c(C)c3cc(F)c(OC(=O)N(C)C)cc3oc2=O)c1F [Compound 1j-1-5-2, Dimethylcarbamic acid 6-fluoro-4-methyl-3-{2-fluoro-3-(methylaminosulfonyl)aminobenzyl}-2-oxo-2H-1-benzopyran-7-yl ester]",2.9
7,"Cc1c(Cc2cccc(NS(N)(=O)=O)c2)c(=O)oc2cc(OC(=O)N(C)C)c(I)cc12 [Compound 1j-1-7-1, Dimethylcarbamic acid 3-{3-(aminosulfonyl)aminobenzyl}-6-iodo-4-methyl-2-oxo-2H-1-benzopyran-7-yl ester]",11.4
8,"CNS(=O)(=O)Nc1cccc(Cc2c(C)c3cc(I)c(OC(=O)N(C)C)cc3oc2=O)c1 [Compound 1j-1-7-2, Dimethylcarbamic acid 6-iodo-4-methyl-3-{3-(methylaminosulfonyl)aminobenzyl}-2-oxo-2H-1-benzopyran-7-yl ester]",7.9
9,"CNS(=O)(=O)Nc1cccc(Cc2c(C)c3cc(C)c(OC(=O)N(C)C)cc3oc2=O)c1 [Compound 1j-1-8-2, Dimethylcarbamic acid 6-methyl-4-methyl-3-{3-(methylaminosulfonyl)aminobenzyl}-2-oxo-2H-1-benzopyran-7-yl ester]",21.7
10,CNS(=O)(=O)Nc1cccc(Cc2c(C)c3cc(C#N)c(OC(=O)N(C)C)cc3oc2=O)c1 [Compound 1j-1-9-2],24.2
11,"CNC(=O)CS(=O)(=O)Nc1cccc(Cc2c(C)c3cc(Cl)c(OC(=O)N(C)C)cc3oc2=O)c1 [Compound 1o-1-3-2, Dimethylcarbamic acid 3-(3-methylcarbamoylmethanesulfonylamino-benzyl)-6-chloro-4-methyl-2-oxo-2H-1-benzopyran-7-yl ester]",21
12,"Cc1c(Cc2cccc(NS(=O)(=O)CC(=O)N(C)C)c2)c(=O)oc2cc(OC(=O)N(C)C)c(Cl)cc12 [Compound 1o-1-3-3, Dimethylcarbamic acid 3-(3-dimethylcarbamoylmethanesulfonylamino-benzyl)-6-chloro-4-methyl-2-oxo-2H-1-benzopyran-7-yl ester]",16

# Same assay, conditions: Homo sapiens, HCT-116, 96 h; HCT116, 4 days incubation, Table 1-2; read-out: IC50 (50% proliferation inhibitory concentration)
row,IC50 [nM],Compound
1,21.1,"CNS(=O)(=O)Nc1nccc(Cc2c(C)c3cc(F)c(Oc4ncccn4)cc3oc2=O)c1F [Compound 1j-2-17-2, 3-{2-(methylaminosulfonyl)amino-3-fluoropyridin-4-ylmethyl}-4-methyl-6-fluoro-7-(pyrimidin-2-yloxy)-2-oxo-2H-1-benzopyran]"
2,5.9,"CNS(=O)(=O)Nc1nccc(Cc2c(C)c3cc(Cl)c(Oc4ncccn4)cc3oc2=O)c1F [Compound 1j-2-18-2, 3-{2-(Methylaminosulfonyl)amino-3-fluoropyridin-4-ylmethyl}-4-methyl-6-chloro-7-(pyrimidin-2-yloxy)-2-oxo-2H-1-benzopyran]"
3,17.8,"CNS(=O)(=O)Nc1nccc(Cc2c(C)c3cc(C)c(Oc4ncccn4)cc3oc2=O)c1F [Compound 1j-2-19-2, 3-{2-(Methylaminosulfonyl)amino-3-fluoropyridin-4-ylmethyl}-4-methyl-6-methyl-7-(pyrimidin-2-yloxy)-2-oxo-2H-1-benzopyran]"
4,8.4,"CCc1c(Cc2ccnc(NS(=O)(=O)NC)c2F)c(=O)oc2cc(Oc3ncccn3)c(C)cc12 [Compound 1j-2-19-2Me, 3-{2-(Methylaminosulfonyl)amino-3-fluoropyridin-4-ylmethyl}-4-ethyl-6-methyl-7-(pyrimidin-2-yloxy)-2-oxo-2H-1-benzopyran]"
5,22.5,"Cc1c(Cc2cccc(NS(N)(=O)=O)c2F)c(=O)oc2cc(Oc3nccs3)ccc12 [Compound 1j-3-4-1, 3-{2-Fluoro-3-(aminosulfonyl)aminobenzyl}-4-methyl-7-(thiazol-2-yloxy)-2-oxo-2H-1-benzopyran]"
6,10.9,"CNS(=O)(=O)Nc1cccc(Cc2c(C)c3ccc(Oc4nccs4)cc3oc2=O)c1F [Compound 1j-3-4-2, 3-{2-Fluoro-3-(methylaminosulfonyl)aminobenzyl}-4-methyl-7-(thiazol-2-yloxy)-2-oxo-2H-1-benzopyran]"
7,12.2,"CNS(=O)(=O)Nc1cc(Cc2c(C)c3cc(Cl)c(Oc4nccs4)cc3oc2=O)ccn1 [Compound 1j-3-12-2, 3-{2-(Methylaminosulfonyl)aminopyridin-4-ylmethyl}-4-methyl-6-chloro-7-(thiazol-2-yloxy)-2-oxo-2H-1-benzopyran]"
8,1.5,"CNS(=O)(=O)Nc1nccc(Cc2c(C)c3cc(C)c(Oc4nccs4)cc3oc2=O)c1F [Compound 1j-3-19-2, 3-{2-(Methylaminosulfonyl)amino-3-fluoropyridin-4-ylmethyl}-4-methyl-6-methyl-7-(thiazol-2-yloxy)-2-oxo-2H-1-benzopyran]"
9,8.9,"CNS(=O)(=O)Nc1cc(Cc2c(C)c3cc(C)c(Oc4nccs4)cc3oc2=O)ccn1 [Compound 1j-3-20-2, 3-{2-(Methylaminosulfonyl)aminopyridin-4-ylmethyl}-4-methyl-6-methyl-7-(thiazol-2-yloxy)-2-oxo-2H-1-benzopyran]"
10,12.9,"CNS(=O)(=O)Nc1nccc(Cc2c(C)c3cc(C)c(Oc4nccs4)cc3oc2=O)c1Cl [Compound 1j-3-44-2, 3-{2-(Methylaminosulfonyl)amino-3-chloropyridin-4-ylmethyl}-4-methyl-6-methyl-7-(thiazol-2-yloxy)-2-oxo-2H-1-benzopyran]"

row,Compound,IC50 [nM]
1,"CNS(=O)(=O)Nc1cc(Cc2c(C)c3ccc(OC(=O)N(C)C)cc3oc2=O)ccn1 [Compound 1j-1-10-2, Dimethylcarbamic acid 4-methyl-3-{2-(methylaminosulfonyl)aminopyridin-4-ylmethyl}-2-oxo-2H-1-benzopyran-7-yl ester]",31.9
2,"CNS(=O)(=O)Nc1cc(Cc2c(C)c3cc(F)c(OC(=O)N(C)C)cc3oc2=O)ccn1 [Compound 1j-1-11-2, Dimethylcarbamic acid 4-methyl-3-{2-(methylaminosulfonyl)aminopyridin-4-ylmethyl}-6-fluoro-2-oxo-2H-1-benzopyran-7-yl ester]",18.3
3,"CNS(=O)(=O)Nc1cc(Cc2c(C)c3cc(Cl)c(OC(=O)N(C)C)cc3oc2=O)ccn1 [Compound 1j-1-12-2, Dimethylcarbamic acid 4-methyl-3-{2-(methylaminosulfonyl)aminopyridin-4-ylmethyl}-6-chloro-2-oxo-2H-1-benzopyran-7-yl ester]",6.4

# — US8278465B2, “Coumarin derivative having antitumor activity” (Chugai Seiyaku Kabushiki Kaisha, priority 2006, dated 2012)
